In PubChem BioAssay (NCI):
“And” between values parts separate entries of the source, which are not always exact repeats. Identical values can stand only once.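 Five concentrations, 48 hours, 96-well plates. The concentration for 50% growth inhibition is given as GI50. TGI: total growth inhibition.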

Assays:
Assay in all cases: inhibition of tumour cell growth, NCI panel, 48 h
786-0 renal = test system: 786-0 renal
CCRF-CEM leukemia = test system: CCRF-CEM leukemia
EKVX NSCLC = test system: EKVX NSCLC
HCT-116 colon = test system: HCT-116 colon
KM12 colon = test system: KM12 colon
M14 melanoma = test system: M14 melanoma
MALME-3M melanoma = test system: MALME-3M melanoma
OVCAR-8 ovarian = test system: OVCAR-8 ovarian
SF-268 CNS = test system: SF-268 CNS
SNB-75 CNS = test system: SNB-75 CNS
UACC-62 melanoma = test system: UACC-62 melanoma
A498 renal = test system: A498 renal

SMILES	TGI (786-0 renal)	TGI (CCRF-CEM leukemia)	TGI (EKVX NSCLC)	TGI (HCT-116 colon)	TGI (KM12 colon)	TGI (M14 melanoma)	TGI (MALME-3M melanoma)	TGI (OVCAR-8 ovarian)	TGI (SF-268 CNS)	TGI (SNB-75 CNS)	TGI (UACC-62 melanoma)	TGI (A498 renal)	GI50 (CCRF-CEM leukemia)	GI50 (HCT-116 colon)	GI50 (KM12 colon)	GI50 (SF-268 CNS)	GI50 (SNB-75 CNS)	GI50 (UACC-62 melanoma)
COc1cc2nc(Nc3cccc(Br)c3)nc(Nc3cccc(Br)c3)c2cc1OC	31 µM	46.5 µM	39.8 µM	31.4 µM	36.7 µM	32.3 µM	34.7 µM	31.6 µM	29.9 µM	31.8 µM	32.8 µM							
CC(C)(C)n1c(=O)n2n(c1=O)Cc1cccc3cccc(c13)C2	45.1 µM	24.6 µM	> 100 µM	33.8 µM	34 µM	34.1 µM	31.7 µM	69.9 µM	49.1 µM	66.4 µM	82.5 µM							
NC(=S)N/N=C/c1nccc2ccccc12				> 100 µM	> 100 µM		0.476 µM	> 100 µM	4.04 µM	13.6 µM	14.7 µM	> 100 µM						
CCN(CC)C(=O)Cn1c(-c2ccccc2)cc2ccccc21	> 100 µM	> 100 µM	> 100 µM	> 100 µM	> 100 µM	> 100 µM	> 100 µM	> 100 µM	> 100 µM	> 100 µM								
COC(=O)CCC(C)[C@H]1CCC2C3C(C[C@H](OC(C)=O)[C@@]21C)[C@@]1(C)CCC2(C[C@H]1C[C@H]3OC(C)=O)OOC1(CCCC1)OO2 (stereo partly drawn)	> 100 µM	> 100 µM	56.4 µM	> 100 µM	> 100 µM	> 100 µM	> 100 µM	> 100 µM	> 100 µM	> 100 µM		> 100 µM						
CC1(C)CC(=O)C(/C=N/C(N)=S)=C(O)C1	> 100 µM	> 100 µM	> 100 µM	> 100 µM	> 100 µM	> 100 µM		> 100 µM	> 100 µM	> 100 µM	> 100 µM							
CC(=O)C1C(=O)C(=O)N(c2ccccc2)C1=O (stereo not drawn)	> 100 µM	> 100 µM	> 100 µM	> 100 µM	> 100 µM	> 100 µM		> 100 µM	> 100 µM	> 100 µM	> 100 µM							
Cn1c(NNc2ccccc2)cc(=O)[nH]c1=O	44.2 µM	53 µM	> 100 µM	> 100 µM	65.3 µM	> 100 µM	> 100 µM	> 100 µM	> 100 µM	> 100 µM	> 100 µM							
O=C1C(C(O)(C(F)(F)Cl)C(F)(F)Cl)CCCC1C(O)(C(F)(F)Cl)C(F)(F)Cl (stereo not drawn)	> 10 µM		> 10 µM	> 10 µM	> 10 µM	> 10 µM	> 10 µM	> 10 µM	> 10 µM		> 10 µM	> 10 µM						
COc1cc(=O)c2c(O)c3c(O)oc(C)cc3c(OC)c2c1	86.7 µM	52.6 µM	63.8 µM	38.4 µM	65.8 µM	88.5 µM	47 µM	72 µM	> 100 µM		52.9 µM	> 100 µM						
O=Cc1c2n(c3ccccc13)N[C@@](Cc1ccc(O)cc1)(C(=O)O)C2	> 100 µM	> 100 µM	> 100 µM	> 100 µM	> 100 µM	> 100 µM	> 100 µM	> 100 µM	> 100 µM		> 100 µM	> 100 µM						
Cc1cc(O)c2c(c1O)C(=O)c1cccc(O)c1C2=O	> 100 µM	> 100 µM	> 100 µM	> 100 µM	> 100 µM	> 100 µM		> 100 µM	> 100 µM	> 100 µM	> 100 µM							
C=C1CCCC2[C@](C)(CC3=C(Cl)C(=O)C=C(OC)C3=O)C(C)CC[C@]12C (stereo partly drawn)	6.53 µM	11.6 µM	5.06 µM	6.43 µM	8.14 µM	10.3 µM	16.3 µM	9.78 µM	11.6 µM		12.7 µM	16.2 µM						
CCN(CC)Cc1cc(Nc2c3ccccc3nc3c2[nH]c2ccccc23)cc(CN(CC)CC)c1O	0.974 µM		3.12 µM	3.33 µM	10.6 µM	1.33 µM		2.89 µM	4.73 µM	2.97 µM	3.02 µM	2.89 µM						
c1cnn(C23C4C5C6C4C2C6C53)c1 (stereo not drawn)	> 100 µM	> 100 µM	> 100 µM	> 100 µM	> 100 µM			> 100 µM	> 100 µM	> 100 µM		> 100 µM						
CCCCCC1CC=CC(=O)O1 (stereo not drawn)	15.2 µM	19.7 µM	20.6 µM	5.83 µM	20.5 µM	26.6 µM	20.2 µM	22.2 µM	40.8 µM		25.3 µM	> 100 µM						
Cc1c2ccnc(C(=O)NCCN(C)C)c2cc2c3cc(O)ccc3n(C)c12	3.37 µM	0.24 µM	5.18 µM	6.1 µM	5.41 µM	1.47 µM	2.06 µM	4.06 µM	2.28 µM	2.19 µM	1.01 µM							
COc1cc([C@@H]2c3cc4c(c(O)c3C[C@H]3COC(=O)[C@@H]32)OCO4)cc(OC)c1OC	46.8 µM and > 100 µM	94.3 µM and > 241 µM and > 100 µM				> 122 µM						> 100 µM	0.374 µM	0.0589 µM	0.104 µM	0.501 µM	0.0203 µM	0.144 µM
CCCC(=O)NC(Nc1cc(C)ccn1)(C(=O)OCC)C(F)(F)F (stereo not drawn)	> 100 µM	> 100 µM	> 100 µM	> 100 µM	> 100 µM	> 100 µM	> 100 µM	> 100 µM	> 100 µM	> 100 µM	> 100 µM							
O=C(c1ccccc1)c1ccc(N2C(=O)/C(=C/Cc3ccco3)N=C2c2ccccc2)c(N2C(=O)/C(=C/Cc3ccco3)N=C2c2ccccc2)c1	> 100 µM	53.5 µM	> 100 µM	> 100 µM	> 100 µM	> 100 µM		> 100 µM	> 100 µM	66.9 µM	> 100 µM	> 100 µM						
